Assay results taken from patent US20240309360A1, “TRANS-ACTIVATORS AND METHODS AND USE THEREOF” (THE GOVERNING COUNCIL OF THE UNIVERSITY OF TORONTO, priority 2021, published 2024).

Tested on: EGFP reporter (7×TetO array, basal CMV promoter) in HEK293T reporter cell line
Test: TAD-seq pooled activation screen of 60-aa fragments fused to PYL1
Assay type: cell-based, human
Details: for Hit high GFP: high GFP population (top 1%); for logFC high GFP / logFC medium GFP: log 2 fold change of counts, 100 μM ABA 48 hours; for logFC high GFP: sorted high GFP cells (top 1%) vs unsorted cells; for logFC medium GFP: sorted medium GFP cells (top 2-5%) vs unsorted cells; for Hit medium GFP: medium GFP population (top 2-5%); call rule not given here
Excerpt: A fragment library of 75 activators identified in our screen was generated, using 60 amino-acid tiles every 20 aa such that every amino acid was represented by three different fragments (FIG. 3A). The pooled fragment library was fused to PYL1 and recruited to the same GFP reporter used in the original ORFeome screen (FIG. 3A). […] The GFP positive population was sorted into two independent replicates, and fragments in each population were quantified by sequencing. However, in contrast to the ORFeome screen, both high GFP cells (top 1%) and medium GFP cells (top 2-5%) were sorted to potentially identify transactivators of different strength.
Activation domain tiling library generation. A tiling library was generated from 75 proteins identified as activators in the ORFeome screen. Oligonucleotides containing a 5′ adapter […] (SEQ ID NO: 23) and a 3′ adapter […] (SEQ ID NO: 24) to generate a 5′ adapter ([…]) (SEQ ID NO: 11) and a 3′ adapter ([…]) (SEQ ID NO: 12) were synthesized as pooled libraries (Twist Biosciences). 6×50 μl PCR reactions were set up using NEBNext Ultra II Q5 master mix (New England Biolabs) with 5 nM oligos as template. PCR conditions were optimized to find the lowest cycle with a clean visible product at the expected 300 bp length. The thermocycling condition was an initial 30 s at 98° C., then 2 cycles of 98° C. for 10 s, 63° C. for 20 s, and 72° C. for 15 s, followed by 10 more cycles of 98° C. for 10 s and 72° C. for 30 s with a final extension at 72° C. for 5 min. Primers were designed to have Gateway compatible flanking sequences. The resulting libraries were gel extracted by QIAgen gel extraction kit after loading on a 2% TAE gel for 2 hrs at 60V and subsequently cloned into pDONR221 using 20 separate BP reactions in total of 5 μl reactions. The entry plasmid pool was transformed after an overnight reaction into DHSalpha competent E. coli and incubated overnight on LB agar plates containing kanamycin ([…]). Colonies were collected and plasmid DNA purified. 20 LR reactions were then set up as described in the previous section. Each reaction was transformed into NEB 10-beta chemically competent E. coli and grown on LB agar plates containing carbenicillin ([…]) overnight at 30° C. Colonies were counted to ensure >200-fold coverage at each step of cloning, pooled and maxiprepped.
Pooled activation screens. ORFeome and transactivation tiling libraries tagged at the C-terminus with PYL1 were packaged into lentiviral particles. A clonal EGFP reporter cell line stably co-expressing ABI-dCas9 and a gRNA targeting the promoter were transduced at low multiplicity of infection (MOI) with approximately 30% cell survival after puromycin (1 μg/mL) selection. Untransduced cells under the same condition were fully eliminated. Sufficient cells were transduced to maintain >500 fold coverage of the libraries. Recruitment was induced by treating cells with 100 μM abscisic acid (ABA, Sigma) for 48 hours. In parallel, a control batch of cells were treated with equal total volume of DMSO. Cells were then washed in PBS, treated with dissociation buffer (1 mM EDTA, 10 mM KCl, 150 mM NaCl, 5 mM sodium bicarbonate, 0.1% glucose) and resuspended in flow buffer (5 mM EDTA, 25 mM HEPES pH 7, 1% BSA, PBS). High GFP population for each library, top 1% for ORFeome and two bins of top 1% and the next 4% for the TAD screen, were sorted and their genomic DNA directly extracted using QIAmp DNA Blood Mini Kit (QIAGEN).
TAD sequencing. Performed nested PCR on the purified genomic DNA using primers targeting T7 promoter and PYL1 of the backbone vector in the first step creating a ˜470 bp product. Products of the first reaction were then pooled and amplified for an additional 10 steps using primers targeting outside the Gateway sites creating a ˜300 bp product. Libraries were quantified on Qubit dsDNA Broad Range kit and paired-end sequenced on an Illumina MIseq with a custom PAGE-purified R1 sequencing primer. […]

For “ATF6-1: 60-aa TAD-seq fragment of ATF6 (MGEPAGVAGTMESPFSPGLFHRLDEDWDSALFAELGYFTDTDELQLEAANETYENNFDNL; listed as Homo sapiens)”, the “Hit high GFP” value was “hit”, the “logFC high GFP” value was 3.145 and the “logFC medium GFP” value was 1.563. For the same substance, the “Hit medium GFP” value was “hit”.

In the case of “ATF6B-1: 60-aa TAD-seq fragment of ATF6B (MAELMLLSEIADPTRFFTDNLLSPEDWGLQNSTLYSGLDEVAEEQTQLFRCPEQDVPFDG; listed as Homo sapiens)”, the “Hit high GFP” value was “hit”, the “logFC high GFP” value was 1.917 and the “logFC medium GFP” value was 0.9931. The “Hit medium GFP” value was “hit”.

In the case of “ATMIN-24: 60-aa TAD-seq fragment of ATMIN (NPGPDTQLPSGPAQNPGIDFDIEEFFSASNIQTQTEESELSTMTTEPVLESLDIETQTDF; listed as Homo sapiens)”, the “logFC high GFP” value was 1.233, the “logFC medium GFP” value was 0.988 and the “Hit medium GFP” value was “hit”.

With “ATMIN-32: 60-aa TAD-seq fragment of ATMIN (ETQTMSSGFETLGSLFFTSNETQTAMDDFLLADLAWNTMESQFSSVETQTSAEPHTVSNF; listed as Homo sapiens)” the “logFC high GFP” value was 0.6355, the “logFC medium GFP” value was 0.8198 and the “Hit medium GFP” value was “hit”.

With “ATOH1-1: 60-aa TAD-seq fragment of ATOH1 (MSRLLHAEEWAEVKELGDHHRQPQPHHLPQPPPPPQPPATLQAREHPVYPPELSLLDSTD; listed as Homo sapiens)” the “logFC high GFP” value was 0.7218, the “logFC medium GFP” value was 0.9194 and the “Hit medium GFP” value was “hit”.

In the case of “ATXN7L3-2: 60-aa TAD-seq fragment of ATXN7L3 (QEIYADLVEDSCLGFCFEVHRAVKCGYFFLDDTDPDSMKDFEIVDQPGLDIFGQVFNQWK; listed as Homo sapiens)”, the “logFC high GFP” value was 0.7654, the “logFC medium GFP” value was 0.8911 and the “Hit medium GFP” value was “hit”.

For “ATXN7L3-4: 60-aa TAD-seq fragment of ATXN7L3 (FEIVDQPGLDIFGQVFNQWKSKECVCPNCSRSIAASRFAPHLEKCLGMGRNSSRIANRRI; listed as Homo sapiens)”, the “logFC high GFP” value was 0.7641, the “logFC medium GFP” value was 0.7514 and the “Hit medium GFP” value was “hit”.

“BRD8-23: 60-aa TAD-seq fragment of BRD8 (KEECFRSGVAEAPVGSKAPSIDGKEELDLAEKMDIAVSYTGEELDFETVGDIIAIIEDKV; listed as Homo sapiens)” was tested, and the “logFC high GFP” value was 0.5884, the “logFC medium GFP” value was 0.5915 and the “Hit medium GFP” value was “hit”.

In the case of “BRD8-24: 60-aa TAD-seq fragment of BRD8 (IDGKEELDLAEKMDIAVSYTGEELDFETVGDIIAIIEDKVDDHPEVLDVAAVEAALSFCE; listed as Homo sapiens)”, the “Hit high GFP” value was “hit”, the “logFC high GFP” value was 1.593 and the “logFC medium GFP” value was 1.566. The “Hit medium GFP” value was “hit”.

With “BTBD18-24: 60-aa TAD-seq fragment of BTBD18 (IDCREPYAFDTALLEQPCEAEEYRITSAAATSELEEILDFMLCGSDIEPPIGSLESPGAE; listed as Homo sapiens)” the “logFC high GFP” value was 1.246, the “logFC medium GFP” value was 0.8561 and the “Hit medium GFP” value was “hit”.

With “BTBD18-25: 60-aa TAD-seq fragment of BTBD18 (EEYRITSAAATSELEEILDFMLCGSDIEPPIGSLESPGAEGCRTPTYHLTETGKNWIEGE; listed as Homo sapiens)” the “logFC high GFP” value was 1.471, the “logFC medium GFP” value was 1.413 and the “Hit medium GFP” value was “hit”.
